Results: ChEMBL document CHEMBL1201862, “PubChem BioAssay data set” (2004)
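All cell lines were grown in 96-well plates and treated with compound for 48 hours. GI50 is the concentration that inhibits growth by half.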 Calls of active or inactive are those of the source. Rule as the data show it: active = GI50 up to about 1.1 µM and inactive = higher.

Legend:
Assay in all cases: NCI anticancer screen, dose series, 48 h
786-0 = system: 786-0
A498 = system: A498
ACHN = system: ACHN
CAKI-1 = system: CAKI-1
CCRF-CEM = system: CCRF-CEM
COLO 205 = system: COLO 205
DLD-1 = system: DLD-1
DMS-114 = system: DMS-114
DMS-273 = system: DMS-273
HCC 2998 = system: HCC 2998
HCT-116 = system: HCT-116
HL-60 = system: HL-60
HOP-62 = system: HOP-62
HOP-92 = system: HOP-92
IGROV-1 = system: IGROV-1
K562 = system: K562
LXFL 529 = system: LXFL 529
M14 = system: M14
M19-MEL = system: M19-MEL
MOLT-4 = system: MOLT-4
Malme-3M = system: Malme-3M
NCI-H226 = system: NCI-H226
NCI-H23 = system: NCI-H23
NCI-H522 = system: NCI-H522
OVCAR-4 = system: OVCAR-4
RPMI-8226 = system: RPMI-8226
SF-268 = system: SF-268
SF-539 = system: SF-539
SK-MEL-28 = system: SK-MEL-28
SK-MEL-2 = system: SK-MEL-2
SK-OV-3 = system: SK-OV-3
SN12C = system: SN12C
SNB-75 = system: SNB-75
SNB-78 = system: SNB-78
SR = system: SR
UACC-62 = system: UACC-62
UO-31 = system: UO-31
XF498 = system: XF498
A549 = system: A549
BT-549 = system: BT-549
DU-145 = system: DU-145
EKVX = system: EKVX
HCT-15 = system: HCT-15
HT-29 = system: HT-29
Hs-578T = system: Hs-578T
KM-20L2 = system: KM-20L2
KM12 = system: KM12
LOX IMVI = system: LOX IMVI
MCF7 = system: MCF7
MDA-MB-231 = system: MDA-MB-231
MDA-MB-435 = system: MDA-MB-435
MDA-N = system: MDA-N
NCI-H460 = system: NCI-H460
NCI/ADR-RES = system: NCI/ADR-RES
OVCAR-3 = system: OVCAR-3
OVCAR-5 = system: OVCAR-5
OVCAR-8 = system: OVCAR-8
PC-3 = system: PC-3
RXF 393 = system: RXF 393
SF-295 = system: SF-295
SK-MEL-5 = system: SK-MEL-5
SNB-19 = system: SNB-19
SW-620 = system: SW-620
T47D = system: T47D
TK-10 = system: TK-10
U-251 = system: U-251
UACC-257 = system: UACC-257

## Cc1ncc(CBr)c(CBr)c1O
786-0
  GI50: > 100 µM (inactive)
A498
  GI50: > 100 µM (inactive)
ACHN
  GI50: > 100 µM (inactive)
CAKI-1
  GI50: > 100 µM (inactive)
CCRF-CEM
  GI50: 44.7 µM (inactive)
COLO 205
  GI50: > 100 µM (inactive)
DLD-1
  GI50: > 100 µM (inactive)
DMS-114
  GI50: > 100 µM (inactive)
DMS-273
  GI50: > 100 µM (inactive)
HCC 2998
  GI50: > 100 µM (inactive)
HCT-116
  GI50: > 100 µM (inactive)
HL-60
  GI50: 60.8 µM (inactive)
HOP-62
  GI50: > 100 µM (inactive)
HOP-92
  GI50: > 100 µM (inactive)
IGROV-1
  GI50: > 100 µM (inactive)
K562
  GI50: > 100 µM (inactive)
LXFL 529
  GI50: > 100 µM (inactive)
M14
  GI50: > 100 µM (inactive)
M19-MEL
  GI50: > 100 µM (inactive)
MOLT-4
  GI50: > 100 µM (inactive)
Malme-3M
  GI50: > 100 µM (inactive)
NCI-H226
  GI50: > 100 µM (inactive)
NCI-H23
  GI50: > 100 µM (inactive)
NCI-H522
  GI50: 55.3 µM (inactive)
OVCAR-4
  GI50: > 100 µM (inactive)
RPMI-8226
  GI50: > 100 µM (inactive)
SF-268
  GI50: > 100 µM (inactive)
SF-539
  GI50: > 100 µM (inactive)
SK-MEL-28
  GI50: > 100 µM (inactive)
SK-MEL-2
  GI50: > 100 µM (inactive)
SK-OV-3
  GI50: > 100 µM (inactive)
SN12C
  GI50: > 100 µM (inactive)
SNB-75
  GI50: > 100 µM (inactive)
SNB-78
  GI50: > 100 µM (inactive)
SR
  GI50: > 100 µM (inactive)
UACC-62
  GI50: > 100 µM (inactive)
UO-31
  GI50: 89.1 µM (inactive)
XF498
  GI50: > 100 µM (inactive)

## CN(C)CCCNc1c2ccccc2nc2cccc([N+](=O)[O-])c12
786-0
  GI50: < 0.001 µM (active)
A498
  GI50: < 0.001 µM (active)
A549
  GI50: < 0.001 µM (active)
ACHN
  GI50: < 0.001 µM (active)
BT-549
  GI50: 0.00252 µM (active)
CAKI-1
  GI50: 0.0196 µM (active)
CCRF-CEM
  GI50: 0.00824 µM (active)
COLO 205
  GI50: < 0.001 µM (active)
DMS-114
  GI50: 0.0132 µM (active)
DMS-273
  GI50: 0.01 µM (active)
DU-145
  GI50: 0.00257 µM (active)
EKVX
  GI50: 0.00185 µM (active)
HCC 2998
  GI50: < 0.001 µM (active)
HCT-116
  GI50: 0.00152 µM (active)
HCT-15
  GI50: < 0.001 µM
HL-60
  GI50: 0.00362 µM (active)
HOP-62
  GI50: 0.0011 µM (active)
HOP-92
  GI50: < 0.001 µM (active)
HT-29
  GI50: < 0.001 µM (active)
Hs-578T
  GI50: 0.00288 µM (active)
IGROV-1
  GI50: < 0.001 µM (active)
K562
  GI50: < 0.001 µM (active)
KM-20L2
  GI50: 0.01 µM (active)
KM12
  GI50: 0.00117 µM (active)
LOX IMVI
  GI50: 0.00142 µM (active)
M14
  GI50: < 0.001 µM (active)
M19-MEL
  GI50: 0.01 µM (active)
MCF7
  GI50: < 0.001 µM (active)
MDA-MB-231
  GI50: < 0.001 µM (active)
MDA-MB-435
  GI50: < 0.001 µM (active)
MDA-N
  GI50: 0.00102 µM (active)
MOLT-4
  GI50: 0.01 µM (active)
Malme-3M
  GI50: < 0.001 µM (active)
NCI-H226
  GI50: 0.0048 µM (active)
NCI-H23
  GI50: < 0.001 µM (active)
NCI-H460
  GI50: < 0.001 µM (active)
NCI-H522
  GI50: < 0.001 µM (active)
NCI/ADR-RES
  GI50: 0.00798 µM (active)
OVCAR-3
  GI50: 0.0143 µM (active)
OVCAR-4
  GI50: < 0.001 µM (active)
OVCAR-5
  GI50: 0.00217 µM (active)
OVCAR-8
  GI50: 0.0195 µM (active)
PC-3
  GI50: < 0.001 µM (active)
RPMI-8226
  GI50: < 0.001 µM (active)
RXF 393
  GI50: 0.00118 µM (active)
SF-268
  GI50: 0.00123 µM (active)
SF-295
  GI50: 0.0236 µM (active)
SF-539
  GI50: 0.00197 µM (active)
SK-MEL-28
  GI50: 0.00235 µM (active)
SK-MEL-2
  GI50: < 0.001 µM (active)
SK-MEL-5
  GI50: < 0.001 µM (active)
SK-OV-3
  GI50: 0.00367 µM (active)
SN12C
  GI50: 0.00102 µM (active)
SNB-19
  GI50: 0.00173 µM (active)
SNB-75
  GI50: 0.00204 µM (active)
SNB-78
  GI50: 0.0117 µM (active)
SR
  GI50: < 0.001 µM (active)
SW-620
  GI50: < 0.001 µM (active)
T47D
  GI50: 0.0158 µM (active)
TK-10
  GI50: 0.00215 µM (active)
U-251
  GI50: 0.0103 µM (active)
UACC-257
  GI50: 0.00275 µM (active)
UO-31
  GI50: 0.013 µM (active)
XF498
  GI50: 0.01 µM (active)

## COc1cc(Br)c(CC2NCCc3cc(OC)c(OC)cc32)cc1OC (stereo unspecified)
786-0
  GI50: 93.5 µM (inactive)
A498
  GI50: 76 µM (inactive)
A549
  GI50: 81.1 µM (inactive)
ACHN
  GI50: 79.1 µM (inactive)
CAKI-1
  GI50: 68.7 µM (inactive)
CCRF-CEM
  GI50: > 100 µM (inactive)
COLO 205
  GI50: 32.7 µM (inactive)
DLD-1
  GI50: > 100 µM (inactive)
EKVX
  GI50: > 100 µM (inactive)
HCC 2998
  GI50: 34.9 µM (inactive)
HCT-116
  GI50: 24.4 µM (inactive)
HL-60
  GI50: 28.4 µM (inactive)
HOP-62
  GI50: > 100 µM (inactive)
HOP-92
  GI50: 16.5 µM (inactive)
HT-29
  GI50: 34 µM (inactive)
K562
  GI50: 32.8 µM (inactive)
KM-20L2
  GI50: 41.2 µM (inactive)
KM12
  GI50: 73.6 µM (inactive)
LXFL 529
  GI50: 36.7 µM (inactive)
M14
  GI50: 44.7 µM (inactive)
M19-MEL
  GI50: 95.7 µM (inactive)
MOLT-4
  GI50: 46.6 µM (inactive)
Malme-3M
  GI50: 58.5 µM (inactive)
NCI-H226
  GI50: 32.8 µM (inactive)
NCI-H23
  GI50: 20.9 µM (inactive)
NCI-H460
  GI50: 55.2 µM (inactive)
NCI-H522
  GI50: > 100 µM (inactive)
OVCAR-3
  GI50: 84.9 µM (inactive)
OVCAR-4
  GI50: > 100 µM (inactive)
OVCAR-5
  GI50: 40.9 µM (inactive)
OVCAR-8
  GI50: 86.1 µM (inactive)
RPMI-8226
  GI50: 18.8 µM (inactive)
SF-268
  GI50: > 100 µM (inactive)
SF-295
  GI50: 12 µM (inactive)
SK-MEL-28
  GI50: 70.5 µM (inactive)
SK-MEL-2
  GI50: > 100 µM (inactive)
SK-OV-3
  GI50: > 100 µM (inactive)
SN12C
  GI50: 94.4 µM (inactive)
SNB-19
  GI50: > 100 µM (inactive)
SNB-75
  GI50: 70.3 µM (inactive)
SNB-78
  GI50: > 100 µM (inactive)
SR
  GI50: 50.9 µM (inactive)
SW-620
  GI50: > 100 µM (inactive)
TK-10
  GI50: 83.4 µM (inactive)
U-251
  GI50: 84.3 µM (inactive)
UACC-257
  GI50: 40.2 µM (inactive)
UACC-62
  GI50: 77.4 µM (inactive)
UO-31
  GI50: 25.7 µM (inactive)
XF498
  GI50: 11.7 µM (inactive)
